Reference: ChEMBL document CHEMBL5154794, “Design, synthesis and biological evaluation of protease inhibitors containing morpholine cores with remarkable potency against both HIV-1 subtypes B and C” (Eur J Med Chem, 2022)

Tests used:
[1] = system: HIV-1 protease; test: Selectivity index, ratio IC50 for cytotoxicity against human HEK-293T cells over IC50 for inhibition of HIV-1 protease; type: toxicity, cell-based; conditions: read-out: Ratio CC50/IC50
[2] = Cytotoxicity against human HEK-293T cells after 24 hrs by CCK-8 assay; type: toxicity, cell-based
[3] = target: Human immunodeficiency virus type 1 protease (Human immunodeficiency virus 1, UniProt Q72874); test: Inhibition of HIV-1 protease using Arg-Glu (EDANS)-Ser-Gln-Asn-Tyr-Pro-lle-Val-Gln-Lys (DABCYL)-Arg as substrate preincubated for 20 to 30 mins followed by substrate addition and measured by FRET assay
[4] = system: Human immunodeficiency virus 1; test: Antiviral activity against HIV1 NL4-3 Env-deficient VSV-G pseudotyped virus infected in human SUP-T1 cells assessed as inhibition of late stage viral production at 10 uM measured after 48 hrs by luciferase assay relative to control; type: functional; conditions: Human immunodeficiency virus 1, NL4-3, SUP-T1
[5] = Selectivity index, ratio EC50 for Antiviral activity against DRV resistant HIV1 over EC50 for wild type HIV1 NL4-3
[6] = system: Human immunodeficiency virus 1; test: Antiviral activity against DRV resistant HIV1; type: functional, organism-based
[7] = system: Human immunodeficiency virus 1; test: Antiviral activity against wild type HIV1 NL4-3; type: functional, organism-based; conditions: Human immunodeficiency virus 1, NL4-3
[8] = system: Human immunodeficiency virus 1; test: Antiviral activity against HIV1 subtype C isolate ZM246; type: functional, organism-based; conditions: Human immunodeficiency virus 1, subtype C isolate ZM246
[9] = system: Human immunodeficiency virus 1; test: Antiviral activity against HIV1 subtype C isolate Indie; type: functional, organism-based; conditions: Human immunodeficiency virus 1, subtype C isolate Indie
[10] = system: Human immunodeficiency virus 1; test: Antiviral activity against HIV1 NL4-3 Env-deficient VSV-G pseudotyped virus infected in human SUP-T1 cells assessed as inhibition of late stage viral production at 100 nM measured after 48 hrs by luciferase assay relative to control; type: functional; conditions: Human immunodeficiency virus 1, NL4-3, SUP-T1

Row | SMILES | selectivity ratio [1] | CC50 at 24 h [2] [nM] | IC50 [3] [nM] | inhibition at 10 µM [4] [%] | Ratio EC50 [5] | EC50 [6] [nM] | EC50 [7] [nM] | EC50 [8] [nM] | EC50 [9] [nM] | inhibition at 0.1 µM [10] [%]
1 | CC(C)CN(C[C@@H](O)[C@H](Cc1ccccc1)NC(=O)[C@H]1CNCCO1)S(=O)(=O)c1ccc(N)cc1 | > 3680 | > 200000 | 54.3 |  |  |  |  |  |  | 
2 | CC(C)CN(C[C@@H](O)[C@H](Cc1ccccc1)NC(=O)OC[C@H]1CN(C)CCO1)S(=O)(=O)c1ccc(O)cc1 | > 130000 | > 200000 | 1.54 |  |  |  |  |  |  | 
3 | COc1ccc(S(=O)(=O)N(CC(C)C)C[C@@H](O)[C@H](Cc2ccccc2)NC(=O)OC[C@H]2CNCCO2)cc1 | > 299000 | > 200000 | 0.67 | 100 |  |  |  |  |  | 
4 | COc1ccc(S(=O)(=O)N(CC(C)C)C[C@@H](O)[C@H](Cc2ccccc2)NC(=O)[C@@H]2COCCN2C)cc1 | 27300 | 132000 | 4.83 | 100 | 6 | 1990 | 350 |  |  | 
5 | CC(C)CN(C[C@@H](O)[C@H](Cc1ccccc1)NC(=O)[C@@H]1COCCN1)S(=O)(=O)c1ccc(N)cc1 | > 6390 | > 200000 | 31.3 |  |  |  |  |  |  | 
6 | COc1ccc(S(=O)(=O)N(CC(C)C)C[C@@H](O)[C@H](Cc2ccccc2)NC(=O)[C@@H]2COCCN2)cc1 | > 513000 | > 200000 | 0.39 | 100 | 9 | 3190 | 340 |  |  | 
7 | CC(C)CN(C[C@@H](O)[C@H](Cc1ccccc1)NC(=O)CN1CCS(=O)(=O)CC1)S(=O)(=O)c1ccc(O)cc1 | > 18800 | > 200000 | 10.6 |  |  |  |  |  |  | 
8 | CC(C)CN(C[C@@H](O)[C@H](Cc1ccccc1)NC(=O)[C@@H]1COCCN1)S(=O)(=O)c1ccc(S(C)(=O)=O)cc1 | > 440 | > 200000 | 454 |  |  |  |  |  |  | 
9 | COc1ccc(S(=O)(=O)N(CC(C)C)C[C@@H](O)[C@H](Cc2ccccc2)NS(=O)(=O)N2CCOCC2)cc1 | 3140 | 60300 | 19.2 |  |  |  |  |  |  | 
10 | CC(C)CN(C[C@@H](O)[C@H](Cc1ccccc1)NS(=O)(=O)N1CCOCC1)S(=O)(=O)c1ccc(N)cc1 | 2860 | 101000 | 35.2 |  |  |  |  |  |  | 
11 | CC(C)CN(C[C@@H](O)[C@H](Cc1ccccc1)NC(=O)CN1CCS(=O)(=O)CC1)S(=O)(=O)c1ccc(NO)cc1 | > 4220 | > 200000 | 47.4 |  |  |  |  |  |  | 
12 | CNc1ccc(S(=O)(=O)N(CC(C)C)C[C@@H](O)[C@H](Cc2ccccc2)NC(=O)[C@H]2CNCCO2)cc1 | > 2220 | > 200000 | 90.2 |  |  |  |  |  |  | 
13 | CC(C)CN(C[C@@H](O)[C@H](Cc1ccccc1)NC(=O)[C@@H]1COCCN1C)S(=O)(=O)c1ccc(NO)cc1 | 3550 | 94600 | 26.7 | 78 |  |  |  |  |  | 
14 | COc1ccc(S(=O)(=O)N(CC(C)C)C[C@@H](O)[C@H](Cc2ccccc2)NC(=O)[C@H]2CNCCO2)cc1 | > 17200 | > 200000 | 11.7 |  |  |  |  |  |  | 
15 | CC(C)CN(C[C@@H](O)[C@H](Cc1ccccc1)NC(=O)[C@@H]1COCCN1)S(=O)(=O)c1ccc(O)cc1 | > 2.22e+06 | > 200000 | 0.09 | 100 | 14 | 1290 | 89 | 13.6 | 8.23 | 
16 | CC(C)CN(C[C@@H](O)[C@H](Cc1ccccc1)NC(=O)[C@@H]1COCCN1)S(=O)(=O)c1ccc(NO)cc1 | 48400 | 145000 | 2.99 | 93 |  |  |  |  |  | 
17 | CC(C)CN(C[C@@H](O)[C@H](Cc1ccccc1)NC(=O)OC[C@H]1CNCCO1)S(=O)(=O)c1ccc(O)cc1 | > 105000 | > 200000 | 1.9 |  |  |  |  |  |  | 
18 | CC(C)CN(C[C@@H](O)[C@H](Cc1ccccc1)NC(=O)[C@H]1CNCCO1)S(=O)(=O)c1ccc(O)cc1 | > 35400 | > 200000 | 5.65 |  |  |  |  |  |  | 
19 | CC(C)CN(C[C@@H](O)[C@H](Cc1ccccc1)NC(=O)OC[C@H]1CN(C)CCO1)S(=O)(=O)c1ccc(NO)cc1 | > 14400 | > 200000 | 13.9 |  |  |  |  |  |  | 
20 | CC(C)CN(C[C@@H](O)[C@H](Cc1ccccc1)NC(=O)O[C@H]1CO[C@H]2OCC[C@H]21)S(=O)(=O)c1ccc(N)cc1 |  | > 200000 |  |  |  | 110 | 1.9 | 2.01 | 1.26 | 100
21 | CC(C)CN(C[C@@H](O)[C@H](Cc1ccccc1)NC(=O)[C@@H]1COCCN1C)S(=O)(=O)c1ccc(O)cc1 | 113000 | 135000 | 1.2 | 100 | 13 | 2200 | 170 |  |  | 
22 | CNc1ccc(S(=O)(=O)N(CC(C)C)C[C@@H](O)[C@H](Cc2ccccc2)NC(=O)[C@@H]2COCCN2)cc1 | > 2090 | > 200000 | 95.8 |  |  |  |  |  |  | 
23 | CC(C)CN(C[C@@H](O)[C@H](Cc1ccccc1)NC(=O)[C@H]1CNCCO1)S(=O)(=O)c1ccc(NO)cc1 | 328 | 11200 | 34 |  |  |  |  |  |  | 
24 | COc1ccc(S(=O)(=O)N(CC(C)C)C[C@@H](O)[C@H](Cc2ccccc2)NC(=O)OC[C@H]2CN(C)CCO2)cc1 | > 88900 | > 200000 | 2.25 | 100 |  |  |  |  |  | 
25 | CC(C)CN(C[C@@H](O)[C@H](Cc1ccccc1)NC(=O)OC[C@H]1CNCCO1)S(=O)(=O)c1ccc(N)cc1 | > 10100 | 200000 | 19.7 |  |  |  |  |  |  | 
26 | CC(C)CN(C[C@@H](O)[C@H](Cc1ccccc1)NC(=O)OC[C@H]1CNCCO1)S(=O)(=O)c1ccc(NO)cc1 | > 81600 | > 200000 | 2.45 |  |  |  |  |  |  | 
27 | COc1ccc(S(=O)(=O)N(CC(C)C)C[C@@H](O)[C@H](Cc2ccccc2)NC(=O)CN2CCS(=O)(=O)CC2)cc1 | > 8230 | > 200000 | 24.3 |  |  |  |  |  |  | 
